# Measurements taken from paper PMC6102747 (Molecular Medicine Reports, 2018).
# Like-named read-outs stand apart in the source and are kept apart here.
# Tests used:
# Format in all cases: in vivo, rats
# Conditions in all cases: vs control
# Sult1a1 [1] = experiment: Western blot protein expression in small intestine and liver
# Bcrp = experiment: RT-qPCR mRNA expression in small intestine and liver
# Slco2b1 = experiment: RT-qPCR mRNA expression in small intestine
# P-gp = experiment: Western blot protein expression in small intestine and liver
# Cyp3a1 = tested on: Cyp3a1
# Sult1a1 [2] = experiment: RT-qPCR mRNA expression in small intestine and liver
# [3] = liver, low-dose Q3GA 2.5 mg/kg i.v. 7 days, P<0.01
# [4] = small intestine, high-dose Q3GA 10 mg/kg i.v. 7 days, P<0.001
# [5] = small intestine, low-dose Q3GA 2.5 mg/kg i.v. 7 days, P<0.001
# [6] = small intestine, middle-dose Q3GA 5 mg/kg i.v. 7 days, P<0.05
# [7] = small intestine, high-dose Q3GA 10 mg/kg i.v. 7 days, P<0.01
# [8] = liver, low-dose Q3GA 2.5 mg/kg i.v. 7 days, P<0.001
# [9] = small intestine, middle-dose Q3GA 5 mg/kg i.v. 7 days, P<0.01
# [10] = liver, middle-dose Q3GA 5 mg/kg i.v. 7 days, P<0.05
structure (smiles),measurement,setting,value
"O=c1c(O[C@@H]2O[C@H](CO)[C@@H](O)[C@H](O)[C@H]2O)c(-c2ccc(O)c(O)c2)oc2cc(O)cc(O)c12 [Q3GA, Quercetin-3-O-β-D-glucoside]",decrease in SULT1A1 protein expression,Sult1a1 [1]; [3],75.89%
same,decrease in SULT1A1 protein expression,Sult1a1 [1]; [4],57.47%
same,decrease in SULT1A1 protein expression,Sult1a1 [1]; [5],75.44%
same,decrease in SULT1A1 protein expression,Sult1a1 [1]; [6],36.33%
same,decrease in Bcrp mRNA expression,"Bcrp; liver, high-dose Q3GA 10 mg/kg i.v. 7 days, not significant",29.23%
same,decrease in Bcrp mRNA expression,Bcrp; [3],56.15%
same,decrease in Bcrp mRNA expression,"Bcrp; liver, middle-dose Q3GA 5 mg/kg i.v. 7 days, not significant",29.23%
same,decrease in Bcrp mRNA expression,Bcrp; [7],43.68%
same,decrease in Bcrp mRNA expression,Bcrp; [5],63.83%
same,decrease in Bcrp mRNA expression,Bcrp; [6],27.52%
same,decrease in Slco2b1 mRNA expression,"Slco2b1; high-dose Q3GA 10 mg/kg i.v. 7 days, P<0.01",39.57%
same,decrease in Slco2b1 mRNA expression,"Slco2b1; low-dose Q3GA 2.5 mg/kg i.v. 7 days, P<0.001",62.19%
same,decrease in Slco2b1 mRNA expression,Slco2b1; middle-dose Q3GA 5 mg/kg i.v. 7 days,20.49%
same,decrease in P-gp protein expression,"P-gp; liver, high-dose Q3GA 10 mg/kg i.v. 7 days, P<0.001",47.26%
same,decrease in P-gp protein expression,P-gp; [8],67.93%
same,decrease in P-gp protein expression,"P-gp; liver, middle-dose Q3GA 5 mg/kg i.v. 7 days, P<0.01",39.92%
same,decrease in P-gp protein expression,P-gp; [4],41.70%
same,decrease in P-gp protein expression,P-gp; [5],65.31%
same,decrease in P-gp protein expression,P-gp; [9],30.22%
same,decrease in CYP3A1 protein expression,"Cyp3a1; liver, high-dose Q3GA 10 mg/kg i.v. 7 days, P<0.01",52.99%
same,decrease in CYP3A1 protein expression,Cyp3a1; [3],57.66%
same,decrease in CYP3A1 protein expression,Cyp3a1; [10],43.95%
same,decrease in CYP3A1 protein expression,Cyp3a1; [4],62.95%
same,decrease in CYP3A1 protein expression,Cyp3a1; [5],75.25%
same,decrease in CYP3A1 protein expression,Cyp3a1; [9],39.22%
same,decrease in Sult1a1 mRNA expression,"Sult1a1 [2]; liver, high-dose Q3GA 10 mg/kg i.v. 7 days",18.39%
same,decrease in Sult1a1 mRNA expression,Sult1a1 [2]; [8],58.06%
same,decrease in Sult1a1 mRNA expression,Sult1a1 [2]; [10],31.94%
same,decrease in Sult1a1 mRNA expression,Sult1a1 [2]; [7],52.02%
same,decrease in Sult1a1 mRNA expression,Sult1a1 [2]; [5],64.54%
same,decrease in Sult1a1 mRNA expression,Sult1a1 [2]; [6],33.80%
